Source: ChEMBL document CHEMBL4304775, “Identification and characterization of a novel chemotype for human TLR8 inhibitors” (Eur J Med Chem, 2019)
The source made the active and inactive calls. The calls are words filed in the database; no cut-off is given here.

How the values were obtained:
[1] = target: Toll-like receptor 2 (Homo sapiens) (UniProt O60603); assay: Antagonist activity at TLR2 in human THP1 cells assessed as inhibition of Pam2CSK4/Pam3CSK4-induced IL-8 secretion preincubated for 1 hr followed by Pam2CSK4/Pam3CSK4 stimulation and measured after 24 hrs by ELISA; assay type: cell-based
THP-1 = assay: Antiinflammatory activity in human THP1 cells assessed as reduction in CL075-induced IL-8 secretion at 10 to 25 uM preincubated for 1 hr followed by CL075-stimulation and measured after 24 hrs by ELISA relative to control; assay type: functional
Toll-like receptor 8 = target: T1, Toll-like receptor 8 (Homo sapiens, UniProt Q9NR97); assay: Antagonist activity at human TLR8 expressed in HEK-Blue cells assessed as inhibition of CL075-induced NF-kappaB activation incubated for 1 hr followed by CL075-stimulation and measured after 24 hrs by quanti-blue SEAP assay; assay type: cell-based
T1 sequence (Q9NR97 whole entry): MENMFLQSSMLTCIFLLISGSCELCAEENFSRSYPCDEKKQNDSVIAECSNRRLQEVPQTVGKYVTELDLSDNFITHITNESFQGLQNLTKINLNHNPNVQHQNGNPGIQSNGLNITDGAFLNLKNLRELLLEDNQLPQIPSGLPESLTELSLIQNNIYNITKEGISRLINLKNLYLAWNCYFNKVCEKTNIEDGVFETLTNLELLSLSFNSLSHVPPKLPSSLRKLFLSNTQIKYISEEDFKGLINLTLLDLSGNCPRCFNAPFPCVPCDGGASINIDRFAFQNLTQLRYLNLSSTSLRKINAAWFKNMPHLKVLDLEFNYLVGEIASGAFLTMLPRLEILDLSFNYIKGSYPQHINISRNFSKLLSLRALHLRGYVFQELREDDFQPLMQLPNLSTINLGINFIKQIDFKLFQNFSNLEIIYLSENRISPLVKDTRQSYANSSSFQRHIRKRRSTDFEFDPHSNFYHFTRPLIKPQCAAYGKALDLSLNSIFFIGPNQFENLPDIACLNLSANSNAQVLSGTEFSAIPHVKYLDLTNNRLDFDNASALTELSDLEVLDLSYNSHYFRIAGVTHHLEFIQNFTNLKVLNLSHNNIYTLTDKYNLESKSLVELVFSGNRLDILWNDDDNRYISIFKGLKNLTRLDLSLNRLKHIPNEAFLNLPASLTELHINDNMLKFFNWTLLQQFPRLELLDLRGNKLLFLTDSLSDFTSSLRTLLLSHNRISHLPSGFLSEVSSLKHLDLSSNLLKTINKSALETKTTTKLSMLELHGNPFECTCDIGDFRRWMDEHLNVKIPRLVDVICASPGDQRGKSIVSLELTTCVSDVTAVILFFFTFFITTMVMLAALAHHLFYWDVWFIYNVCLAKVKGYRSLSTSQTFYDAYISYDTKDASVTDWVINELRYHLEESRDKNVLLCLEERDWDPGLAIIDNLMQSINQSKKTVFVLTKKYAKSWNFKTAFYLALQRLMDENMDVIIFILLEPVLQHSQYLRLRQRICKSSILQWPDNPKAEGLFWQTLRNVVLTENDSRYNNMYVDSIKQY

[2] = target: T2, Toll-like receptor 9 (Homo sapiens) (UniProt Q9NR96); assay: […] at TLR9 in human THP1 cells assessed as inhibition of ODN2006-induced IL-8 secretion preincubated for 1 hr followed by ODN2006-stimulation and measured after 24 hrs by ELISA; assay type: cell-based
T2 sequence (whole entry): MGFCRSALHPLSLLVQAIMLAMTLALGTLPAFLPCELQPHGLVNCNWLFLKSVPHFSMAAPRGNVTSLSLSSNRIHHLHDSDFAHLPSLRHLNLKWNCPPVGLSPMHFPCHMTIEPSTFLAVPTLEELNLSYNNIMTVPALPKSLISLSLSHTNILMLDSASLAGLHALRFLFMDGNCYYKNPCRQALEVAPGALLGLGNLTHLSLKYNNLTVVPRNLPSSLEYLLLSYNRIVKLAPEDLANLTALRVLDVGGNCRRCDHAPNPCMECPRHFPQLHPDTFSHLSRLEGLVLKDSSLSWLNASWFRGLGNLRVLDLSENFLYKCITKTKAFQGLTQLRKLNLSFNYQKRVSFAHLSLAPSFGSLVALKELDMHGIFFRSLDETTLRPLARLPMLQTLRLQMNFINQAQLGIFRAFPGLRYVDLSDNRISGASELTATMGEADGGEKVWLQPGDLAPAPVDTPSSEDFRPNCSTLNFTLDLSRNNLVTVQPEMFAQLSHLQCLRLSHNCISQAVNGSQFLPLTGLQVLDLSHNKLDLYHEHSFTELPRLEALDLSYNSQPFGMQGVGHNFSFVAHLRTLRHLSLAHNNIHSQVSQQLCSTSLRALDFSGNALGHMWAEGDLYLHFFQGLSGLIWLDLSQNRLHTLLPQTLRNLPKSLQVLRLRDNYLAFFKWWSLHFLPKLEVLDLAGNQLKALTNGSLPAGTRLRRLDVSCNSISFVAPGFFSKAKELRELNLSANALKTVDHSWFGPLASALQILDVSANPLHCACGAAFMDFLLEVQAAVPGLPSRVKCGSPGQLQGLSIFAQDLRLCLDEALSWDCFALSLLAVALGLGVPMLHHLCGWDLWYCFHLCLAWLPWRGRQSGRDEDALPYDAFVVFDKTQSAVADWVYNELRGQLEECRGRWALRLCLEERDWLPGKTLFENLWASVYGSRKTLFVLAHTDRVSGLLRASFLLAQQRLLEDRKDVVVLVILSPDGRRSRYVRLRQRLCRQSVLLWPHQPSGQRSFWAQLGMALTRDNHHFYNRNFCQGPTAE

[3] = target: T3, Toll-like receptor 8 (Homo sapiens) (UniProt Q9NR97); assay: Antagonist activity at human TLR8 expressed in HEK-Blue cells assessed as reduction in CL075-induced NF-kappaB activation at 25 uM incubated for 1 hr followed by CL075-stimulation and measured after 24 hrs by quanti-blue SEAP assay relative to control; assay type: cell-based
T3 sequence (whole entry): T1 sequence (Q9NR97 whole entry)

[4] = target: Toll-like receptor 3 (Homo sapiens) (UniProt O15455); assay: […] at TLR3 in human THP1 cells assessed as inhibition of poly(A:U)-induced IL-8 secretion preincubated for 1 hr followed by poly(A:U)-stimulation and measured after 24 hrs by ELISA; assay type: cell-based
Toll-like receptor 3 (Homo sapiens), sequence (O15455 whole entry): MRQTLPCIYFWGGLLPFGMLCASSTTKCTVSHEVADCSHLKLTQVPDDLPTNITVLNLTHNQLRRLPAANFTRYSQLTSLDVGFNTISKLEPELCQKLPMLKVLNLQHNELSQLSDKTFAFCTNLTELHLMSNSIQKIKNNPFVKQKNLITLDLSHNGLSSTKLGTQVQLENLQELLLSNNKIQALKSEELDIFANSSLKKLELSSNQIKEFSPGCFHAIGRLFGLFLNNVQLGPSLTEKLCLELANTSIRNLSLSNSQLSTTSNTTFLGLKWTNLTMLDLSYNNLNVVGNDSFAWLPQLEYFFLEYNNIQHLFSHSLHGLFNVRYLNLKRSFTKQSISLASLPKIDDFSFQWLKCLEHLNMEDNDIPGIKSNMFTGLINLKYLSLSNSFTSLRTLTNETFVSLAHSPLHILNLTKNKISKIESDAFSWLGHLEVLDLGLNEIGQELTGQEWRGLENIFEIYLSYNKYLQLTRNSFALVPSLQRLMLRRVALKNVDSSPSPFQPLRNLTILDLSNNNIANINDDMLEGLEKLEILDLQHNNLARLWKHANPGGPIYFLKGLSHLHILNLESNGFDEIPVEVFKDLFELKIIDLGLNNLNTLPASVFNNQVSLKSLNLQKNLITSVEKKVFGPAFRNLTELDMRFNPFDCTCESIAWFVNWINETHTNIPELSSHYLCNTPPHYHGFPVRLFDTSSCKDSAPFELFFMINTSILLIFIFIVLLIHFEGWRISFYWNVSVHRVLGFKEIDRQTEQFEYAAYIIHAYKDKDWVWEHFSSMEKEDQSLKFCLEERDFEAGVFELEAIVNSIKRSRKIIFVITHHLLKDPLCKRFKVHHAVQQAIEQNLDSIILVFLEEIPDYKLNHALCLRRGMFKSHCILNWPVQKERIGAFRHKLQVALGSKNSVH

Toll-like receptor 2 (Homo sapiens), sequence (O60603 whole entry): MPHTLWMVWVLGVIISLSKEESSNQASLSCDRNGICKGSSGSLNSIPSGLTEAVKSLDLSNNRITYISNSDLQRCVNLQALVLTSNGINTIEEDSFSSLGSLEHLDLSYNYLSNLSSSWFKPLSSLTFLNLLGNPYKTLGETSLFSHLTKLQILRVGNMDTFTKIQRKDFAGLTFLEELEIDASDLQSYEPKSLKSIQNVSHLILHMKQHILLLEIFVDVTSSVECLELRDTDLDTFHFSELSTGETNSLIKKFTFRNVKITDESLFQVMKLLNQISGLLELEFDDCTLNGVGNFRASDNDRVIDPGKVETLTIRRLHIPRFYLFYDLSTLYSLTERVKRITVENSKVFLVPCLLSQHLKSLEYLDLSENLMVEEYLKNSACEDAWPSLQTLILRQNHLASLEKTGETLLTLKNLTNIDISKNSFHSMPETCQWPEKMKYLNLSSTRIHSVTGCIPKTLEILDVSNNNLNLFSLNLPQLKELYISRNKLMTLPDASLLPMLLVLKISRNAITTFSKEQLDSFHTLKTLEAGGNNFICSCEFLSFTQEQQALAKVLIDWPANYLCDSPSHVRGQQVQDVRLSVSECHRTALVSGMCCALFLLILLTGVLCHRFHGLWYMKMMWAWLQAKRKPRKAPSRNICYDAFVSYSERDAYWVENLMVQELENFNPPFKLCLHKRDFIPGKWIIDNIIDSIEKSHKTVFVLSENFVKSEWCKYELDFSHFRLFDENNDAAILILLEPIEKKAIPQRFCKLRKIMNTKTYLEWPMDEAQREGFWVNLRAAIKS

Row | inhibition [1] | IC50 (Toll-like receptor 8) [µM] | inhibition [2] | inhibition [3] [%] | inhibition [4] | SMILES | inhibition (INH) (THP-1) [%]
1 | inactive | 35.5 | inactive | < 50 | inactive | CCCCNc1nc(-c2cccs2)cc(C(F)(F)F)n1 | 50
2 | inactive | 20 | inactive | < 50 | inactive | FC(F)(F)c1cc(-c2ccccc2)nc(NCc2cccs2)n1 | >70
3 | inactive | 9.2 | inactive | < 50 | inactive | FC(F)(F)c1cc(-c2ccco2)nc(NCc2cccs2)n1 | >70
